# Measured values from paper PMC5242348, “Triterpene Constituents of Euphorbia Erythradenia Bioss. and their Anti-HIV Activity” (Iranian Journal of Pharmaceutical Research : IJPR, 2016).
# Legend:
# [1] = tested on: single cycle replicable HIV-1 (SCR HIV-1) virions; details: ratio of CC50 (Hela, XTT) to IC50 (p24)
# [2] = XTT-based cytotoxicity assay; details: human
# [3] = tested on: single cycle replicable HIV-1 (SCR HIV-1) virions; assay: microbe, parasite or virus in culture; details: Human immunodeficiency virus 1, HeLa, 48 h, read-out: Anti HIV activity IC50 (concentration causing 50% HIV activity inhibition)
SMILES,Therapeutic index TI (CC50/IC50) [1],CC50 at 3 days [2] [nM],IC50 [3] [nM],CC50 at 3 days ([2]; HeLa cells) [nM]
"CC1(C)CC[C@]2(C(=O)O)CC[C@]3(C)C(=CC[C@@H]4[C@@]5(C)CC[C@H](O)C(C)(C)[C@@H]5CC[C@]43C)[C@@H]2C1 [Compound 4, Oleanolic acid]",2.44,22,9,
"CC=C(C)C(=O)OC1C(CO)C(O)C2C(=O)C3(CC(C)C(OC(=O)CCC)C13)C(C)(OC(=O)c1cccnc1)CC1(OC(C)=O)C2C1(C)C (stereo not shown) [Compound 8, 13-acetyl-5-angeloyl-11-nicotinyl-3-butanoyl-1,2,6,7-tetrahydroingenol]",,168,44,
"CCC(=O)OC1C(C)CC23C(=O)C(C(OC(=O)c4ccccc4)C(COC(=O)c4cccnc4)C(OC(C)=O)C12)C1C(C)(C)C1(OC(C)=O)CC3(C)O (stereo not shown) [Compound 7, 5,13-diacetyl-7-benzoyl-20-nicotinyl-3-propionyl-1,2,6,7-tetrahydroingenol]",,3260,8,
"CC=C(C)C(=O)OC1C(COC(=O)c2cccnc2)C(O)C2C(=O)C3(CC(C)C(OC(=O)CCC)C13)C(C)(O)CC1(OC(C)=O)C2C1(C)C (stereo not shown) [Compound 5, 13-acetyl-3-butanoyl-5-angeloyl-20-nicotinyl-1,2,6,7-tetrahydroingenol]",0.11,4,36,
"Cc1ccnc2c1NC(=O)c1cccnc1N2C1CC1 [Nevirapine, reference compound]",> 105.31,6740,< 64,
"CC=C(C)C(=O)OC1C(COC(=O)c2cccnc2)C(OC(C)=O)C2C(=O)C3(CC(C)C(OC(=O)CC)C13)C(C)(O)CC1(OC(C)=O)C2C1(C)C (stereo not shown) [Compound 6, 7,13-diacetyl-5-angeloyl-20-nicotinyl-3-propionyl-1,2,6,7-tetrahydroingenol]",11.75,84,7,
"CC(C/C=C\C(C)(C)O)C1CC[C@@]2(C)C3CCC4C(C)(C)[C@@H](O)CC[C@@]45C[C@@]35CC[C@]12C (stereo partly drawn) [Compound 2, Cycloart-23-ene-3β,25-diol]",3.67,,6,22
C=C(C)C(O)CCC(C)C1CC[C@@]2(C)C3CCC4C(C)(C)[C@@H](O)CC[C@@]45C[C@@]35CC[C@]12C (stereo partly shown) [1a & 1b],4.67,,3,14
